Data published in patent US9133237B2, “Cyclic peptides with an anti-parasitic activity” (priority 2009, dated 2015).

What was measured:
[1] = tested on: non-infected human fibroblasts (HFF); type: cell-based
Description: (§1) The synthesized cyclic peptides were subject to tests in vitro on human fibroblasts infected by Toxoplasma gondii (Toxo), on non-infected human fibroblasts (HFF) and on HeLa cancer cells (cervical cancer) and MCF-7 cancer cells (breast cancer). Their respective efficiencies were tested at 90 nM as a preliminary test. The results are illustrated in Figure 1.

[2] = tested on: HeLa cancer cells (cervical cancer); type: cell-based
Description: as §1

Toxoplasma gondii = type: cell-based
Description: as §1

[3] = tested on: MCF-7 cancer cells (breast cancer); type: cell-based
Description: as §1

[4] = tested on: cysts (bradyzoite form) of murine brains; test: ex vivo treatment of cysts of murine brains, re-inoculated intraperitoneally to mice; type: in vivo, Toxoplasma gondii; details: cysts treated ex vivo at 200 nM for 7 days, Figure 3
Description: The cyclic peptide (IV′f) was then tested on cysts (bradyzoite form) of murine brains ex vivo at 200 nM (Figure 3). The cysts after treatment for 7 days with the cyclic peptide (IV′f) were re-inoculated intraperitonally to the mice.

C[C@@H](O)C(=O)CCCCC[C@@H]1NC(=O)[C@H]2CCCN2C(=O)[C@H](Cc2ccccc2)NC(=O)C(C)(C)NC1=O [(IV′f), (3S,9S,14aR)-9-benzyl-3-((R)-7-hydroxy-6-oxooctyl)-6,6-dimethyldecahydropyrrolo[1,2-a][1,4,7,10]tetraazacyclododecine-1,4,7,10-tetraone]
EC50 [1]: 647 nM
EC90 [1]: 4110 nM
EC50 [2]: 474 nM
EC90 [2]: 1010 nM
EC50 (Toxoplasma gondii): 28.6 nM
EC90 (Toxoplasma gondii): 79.7 nM
efficiency in preliminary test (Toxoplasma gondii; 90 nM, Figure 1): interesting preliminary results
activity compared with apicidin (Toxoplasma gondii; Figure 2): activity close to that of apicidin
effectiveness (Toxoplasma gondii; Figure 2): very good effectiveness, of the order of the nanomolar
efficiency compared with pyrimethamine (Toxoplasma gondii; Figure 2): much greater efficiency relatively to pyrimethamine
EC50 [3]: 533 nM
cysts in mice after injection of treated cysts [4]: do not exhibit any cyst
